Measured values from patent publication US20240398767A1, “INHIBITORS OF THE MTDH-SND1 PROTEIN COMPLEX FOR CANCER THERAPY” (The Trustees of Princeton University, priority 2021, published 2024).

Legend:
PyMT tumorspheres = experiment: PyMT tumorsphere viability, apoptosis, cell cycle and western blot; assay type: cell-based, mouse
Procedure: FIG. 14A, Spheres were treated with vehicle or indicated concentrations of C26-A6 for 1 week. The viability of the spheres was then quantified by MTT assay.
For FIGS. 14B-14I, similar sphere assay as in FIG. 14A was performed. n≥3 independent experiments. Data represent mean±SEM and significance determined by two tailed Student's t-test for all panels in FIGS. 14B-14I.
FIG. 15C, Sphere assay was performed and treated with vehicle and C26-A6 as in FIG. 14A. The spheres were collected for western blot to analyze the expression of the candidates.
To obtain insights into the molecular mechanism underlying C26-A6 treatment-induced reduction of cell viability and increase of apoptosis, in vitro sphere assays were employed. […] To further explore the downstream effectors of tumor-suppressive response to C26-A6, GSEA analysis of PyMT tumor with or without C26-A6 treatment was performed.

[1] = Toxicity in 4TO7 metastasis-bearing mice (ALT/AST, blood cell counts, small intestine); assay type: in vivo
Procedure: FIG. 7E, Serum from mice in FIG. 7A were collected for ALT and AST activity measurement following the standard protocol (Sigma). Data represent mean±SEM. AST, n=8 replicates from 6 mice; ALT, n=9 replicates from 6 mice. Significance determined by one-way ANOVA analysis with Sidak's test for multiple comparisons.
FIG. 7F, Blood samples were drawn from the heart of mice in FIG. 7A, and blood cell counts were performed with the Sysemx XN-3000 Hematology System (Sysmex America, Inc.). Data represent mean±SEM. n=6 mice per group. Significance determined by one-way ANOVA analysis with Sidak's test for multiple comparisons.
FIG. 7G, Small intestine samples were obtained from mice in FIG. 7A. H&E and Alcian blue staining was performed on processed, sliced samples. Scale bar: 200 μm.
FIG. 7H, Quantification of Alcian blue staining results from FIG. 7G. Data represent mean±SEM. n=12 fields from 6 mice in each group. Significance determined by one-way ANOVA analysis with Sidak's test for multiple comparisons.

[2] = test system: PyMT tumor immune microenvironment; experiment: Immune cell profiling of orthotopic PyMT tumors and lungs by flow cytometry; assay type: in vivo, FVB females; conditions: six weeks after treatment
Excerpt: FIGS. 35A-35C show C26-A6 combined with anti-PD-1 treatment reshapes the tumor immune microenvironment. For FIGS. 35A-35C, 100 k PyMT tumor cells were orthotopically injected into the mammary glands of FVB females. The mice were randomized and divided into three groups when primary tumors were established, followed by vehicle, C26-A6, or C26-A6+anti-PD-1 treatment. Six weeks after treatment, primary tumors and lung with metastatic lesions were collected for flow analysis with indicated antibodies. Anti-PD-1, 200 μg/mouse i.p. injection, twice per week for the first week and then once per week after that; C26-A6, 15 mg/kg i.v. injection, 5 days per week. n=6 mice per group. Data represent mean±SEM. Significance determined by one-way ANOVA analysis with Dunnett's test for multiple comparisons.
FIG. 35A, Percentages of CD11b^+F4/80^+, Ly6G^lowLy6C^high, Ly6G^highLy6C^low, CD3-NK1.1^+ in CD45^+ population and percentage of CD4^+FOXP3^+ in CD3^+ population are shown.
FIG. 35B, Percentages of GITR^+LAG-3^+ in CD8^+ population are shown.
Flow cytometry. Dissociated tumors or lungs were dissected and prepared as previously described^10. […]. Organoids were sequentially suspended with 0.25% trypsin-EDTA for 1.5 min, 5 mg/ml Dispase (Invitrogen), and 0.1 mg/ml DNase (Sigma) for 5 min, and 0.64% ammonium chloride for 5 min at 37° C. before filtration through a 40 μm nylon cell strainer. Tumor or lung cell suspensions were incubated with an antibody cocktail in FACS buffer (PBS+3% BSA) for 30 minutes at 4° C., washed, and resuspended in FACS buffer for flow analysis. Isotype controls were used to assess specificity of antibody labeling. […] Samples were analyzed with BD FACSDiva v6 software and data was processed with FlowJo v10 software. […]

COc1ccc(Cl)cc1S(=O)(=O)Nc1cccn2nc(C)nc12 [Analog C26-A6]
Cdc20, Plk1, and c-Myc expression (western blot) (PyMT tumorspheres): down-regulated
cell cycle status (PyMT tumorspheres; 200 μM): induced G2/M cell cycle arrest
survival (live cells, apoptosis) (PyMT tumorspheres; 200 μM): significantly reduced survival
sphere viability (MTT assay), tumorspheres versus MECs (PyMT tumorspheres; indicated concentrations, 1 week): more susceptible
tolerability ([1]; 15 mg/kg 5 days per week): well tolerated
enhancement of chemotherapy toxicity ([1]; combined with paclitaxel): did not further enhance the chemotherapy toxicity
CD8+ T cell exhaustion (GITR+LAG-3+ in CD8+ population) [2]: elevated CD8^+ T cell exhaustion
infiltration of Ly6GhighLy6Clow sub-population of MDSCs [2]: reduced
infiltration of Ly6GlowLy6Chigh sub-population of MDSCs [2]: significantly enhanced
populations of macrophages, NK cells and regulatory T cells [2]: not significantly altered
